Measured values taken from PubChem BioAssay AID651630 (Sanford-Burnham Center for Chemical Genomics, 2012).
Active and inactive are the calls of the source.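 How the source made its calls: active means lipid-stain IC50 at or below a set limit, with nuclear-stain toxicity IC50 at least five times higher; inactive means the rest.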

What was measured:
TAG = TAG lipid buildup inhibition with viability readout – cell-based, panel, Nile Red and DAPI fluorescence, H9c2, dose response (AID 651630); conditions: H9c2 cells, Nile Red TAG fluorescence, oleic acid;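 further: cells exposed to compound overnight before fixation and staining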
DAPI = experiment: as above; conditions: H9c2 cells, DAPI nuclear fluorescence (cytotoxicity counter-readout), oleic acid

| Compound | IC50 (TAG; mean of runs) | IC50 (TAG; run 1) [µM] | IC50 (TAG; run 2) [µM] | IC50 cytotoxicity (DAPI nuclear signal decrease) (DAPI; mean of runs) | IC50 cytotoxicity (DAPI nuclear signal decrease) (DAPI; run 1) [µM] | IC50 cytotoxicity (DAPI nuclear signal decrease) (DAPI; run 2) [µM] |
| --- | --- | --- | --- | --- | --- | --- |
| CCOC(=O)c1c(C)[nH]c(C(=O)OCC(=O)NCCc2ccc(OCC)c(OCC)c2)c1C | > 25 µM (inactive) | > 25 | > 25 | > 25 µM (inactive) | > 25 | > 25 |
| O=c1cc(-c2ccccc2)[nH]c2ccc(F)cc12 | > 25 µM (inactive) | > 25 | > 25 | > 25 µM (inactive) | > 25 | > 25 |
| CC1(C)Cc2nc3sc4c(SCC(=O)NCc5ccco5)ncnc4c3cc2CO1 | > 25 µM (inactive) | > 25 | > 25 | > 25 µM (inactive) | > 25 | > 25 |
| COc1ccc(C[C@H]2CN3C(=NC[C@@H]3Cc3ccc(O)cc3)N2CCNC(=O)c2ccc(C)c(Br)c2)cc1 | > 25 µM (inactive) | > 25 | > 25 |  | 24 | > 25 |
| COc1ccc(-c2cc(C(=O)Nc3cc(OC)cc(C(=O)Nc4cccc(C(F)(F)F)c4)c3)[nH]n2)cc1 |  | > 25 | 4.64 | > 25 µM (inactive) | > 25 | > 25 |
| Oc1ccc(C[C@H]2CNC(=S)N2CC2CCCN2C[C@H](Cc2ccc(O)cc2)N2C[C@H](Cc3ccc(O)cc3)N(CC3CCCCCC3)C2=S)cc1 (stereo partly specified) | 8.6 µM | 7.31 | 9.89 | > 25 µM (inactive) | > 25 | > 25 |
| CC(C)(C)c1ccc(/C=N/NC(=O)Cc2c[nH]c3ccccc23)cc1 | 20.5 µM (inactive) | 16.5 | 24.4 | > 25 µM (inactive) | > 25 | > 25 |
| Cc1cc(NC(=O)c2cc(-c3ccncc3)nc3c(C)cccc23)no1 | 11.5 µM | 10.5 | 12.5 | > 25 µM (inactive) | > 25 | > 25 |
| c1ccc(OCCNc2nc(NCC3CC3)nc3cc(-c4ccccc4)sc23)cc1 | 12.8 µM | 12.7 | 12.9 | > 25 µM (inactive) | > 25 | > 25 |
| CCC1=Nc2cc(C(=O)NCCCOC)ccc2Sc2ccccc21 | > 25 µM (inactive) | > 25 | > 25 | > 25 µM (inactive) | > 25 | > 25 |
| O=C(CCl)N(CCCNC(=O)C(F)(F)F)c1ccc([N+](=O)[O-])cc1 | > 25 µM (inactive) | > 25 | > 25 | > 25 µM (inactive) | > 25 | > 25 |
| CCN(CC)CCNc1ncnc2c1sc1nc(N3CCCC3)c3c(c12)CC(C)(C)OC3 | 18 µM (inactive) | 16.9 | 19.1 | > 25 µM (inactive) | > 25 | > 25 |
| NC(=O)c1cc(-c2ccccc2)nc(N2CCOCC2)n1 |  | > 25 | 20.3 | > 25 µM (inactive) | > 25 | > 25 |
| COc1ccc(CC(N)c2csc(NC(=O)NCc3ccccc3)n2)cc1 (stereo unspecified) | 17.9 µM (inactive) | 20.2 | 15.5 | > 25 µM (inactive) | > 25 | > 25 |
| O=C(NCCCCCCCN1CCCCCCC1)C(C1CCCCC1)C1CCCCC1 | 17.8 µM (inactive) | 15.9 | 19.7 | > 25 µM (inactive) | > 25 | > 25 |
| COc1ccc(S(=O)(=O)N2N=C(C)Oc3ccccc3C2=O)cc1 | > 25 µM (inactive) | > 25 | > 25 | > 25 µM (inactive) | > 25 | > 25 |
| C#CCN(C[C@H]1[C@H](OC(=O)NCCCCCC)[C@H](OC(=O)NCCCCCC)C[C@@H](C(=O)OC)[C@H]1C(=O)OC)S(=O)(=O)c1ccc(C)cc1 | 4.91 µM | 4.31 | 5.5 |  | > 25 | > 25 |

| Compound | IC50 (TAG; mean of runs) | IC50 (TAG; run 1) [µM] | IC50 (TAG; run 2) [µM] | IC50 cytotoxicity (DAPI nuclear signal decrease) (DAPI; mean of runs) | IC50 cytotoxicity (DAPI nuclear signal decrease) (DAPI; run 1) [µM] | IC50 cytotoxicity (DAPI nuclear signal decrease) (DAPI; run 2) [µM] |
| --- | --- | --- | --- | --- | --- | --- |
| COc1ccc2[nH]c3c(c2c1)CCN1C(=O)C(CC(=O)NCC24CC5CC(CC(C5)C2)C4)C[C@H](C(=O)N(C(C)C)C(C)C)[C@@]31C (stereo partly specified) |  | 20.8 | > 25 | > 25 µM (inactive) | > 25 | > 25 |
| COc1cc(-c2nnc3n2N=C(c2ccccc2)CS3)cc(OC)c1OC | 13.4 µM | 14.9 | 12 | > 25 µM (inactive) | > 25 | > 25 |
| COc1cc(OC)c2c(-c3ccccc3)cc(=O)oc2c1C(CCN1CCCC(C)C1)c1ccc2c(c1)OCO2 (stereo unspecified) |  | > 25 | 13.7 | > 25 µM (inactive) | > 25 | > 25 |
| CCn1c(SCC(=O)Nc2nc(-c3ccc(C)cc3)cs2)nnc1-c1ccccc1O | 1.68 µM | 1.65 | 1.71 |  | > 25 | > 25 |
| O=C(c1ccoc1)N1CCN(c2cc(-c3cccnc3)nc3cc(-c4cccc(Cl)c4)nn23)CC1 | 4.93 µM | 3.16 | 6.71 |  | > 25 | > 25 |
| COc1cc(OC)c2c(-c3ccccc3)cc(=O)oc2c1C(CCN1CCCCC1)c1ccc(N(C)C)cc1 (stereo unspecified) |  | 9.65 | > 25 |  | 15.9 | > 25 |
| Cc1ccc(-c2csc(NC(=O)CSc3nc4ccccc4c(=O)n3CCCN(C)C)n2)cc1 | 7.04 µM | 7.46 | 6.62 | > 25 µM (inactive) | > 25 | > 25 |
| Cc1cc(NC(=O)CSc2nc(-c3cccs3)nc3ccccc23)no1 | 17.5 µM (inactive) | 14.4 | 20.6 | > 25 µM (inactive) | > 25 | > 25 |
| CCCOc1ccc(F)cc1-c1cc(C(=O)NCc2cc(OC)cc(OC)c2)[nH]n1 | 10.1 µM | 10.8 | 9.39 | > 25 µM (inactive) | > 25 | > 25 |
| Cc1[nH]c2ccccc2c1/C=N/Nc1nc(Nc2ccc(F)cc2)nc(N2CCOCC2)n1 | 20.6 µM (inactive) | 21.6 | 19.7 | > 25 µM (inactive) | > 25 | > 25 |
| Clc1cccc(Nc2nc(-c3ccncc3)cs2)c1 | > 25 µM (inactive) | > 25 | > 25 | > 25 µM (inactive) | > 25 | > 25 |
| COc1ccc(-c2ccc3[nH]c4c(c3c2)CCN2C(=O)[C@@H]([C@H](C)O)[C@@H](N(C)C(=O)Nc3cc(Cl)cc(Cl)c3)C[C@@H]42)cc1 | 19.5 µM (inactive) | 17.4 | 21.5 | > 25 µM (inactive) | > 25 | > 25 |
| OCCCn1c(C2CCCN2c2nc(-c3ccc(Cl)cc3)cs2)nc2cc(Cl)c(N3CCCCC3)cc21 (stereo unspecified) |  | 24.6 | > 25 | > 25 µM (inactive) | > 25 | > 25 |
| CCOc1ccc(S(=O)(=O)NCc2ccccn2)cc1NC(=O)c1ccccc1 | > 25 µM (inactive) | > 25 | > 25 | > 25 µM (inactive) | > 25 | > 25 |
| CC1(C(=O)NCc2ccccc2)Cc2c(-c3cccc(C(N)=O)c3)ccnc2O1 (stereo unspecified) |  | 20.9 | > 25 | > 25 µM (inactive) | > 25 | > 25 |
| COc1ccc(-c2nc(-c3ccccc3)c(-c3cc([N+](=O)[O-])ccc3C)[nH]2)cc1OC | 12.9 µM | 12 | 13.9 | > 25 µM (inactive) | > 25 | > 25 |
